From US12187723B2 (BRISTOL-MYERS SQUIBB COMPANY, priority 2019, dated 2025) come the findings set out here.

The experiment concerns the target T1, human TLR7 (Homo sapiens, UniProt Q9NYK1).
T1 construct: host or cells: HEK-Blue cells
T1 sequence (Q9NYK1 27-1049): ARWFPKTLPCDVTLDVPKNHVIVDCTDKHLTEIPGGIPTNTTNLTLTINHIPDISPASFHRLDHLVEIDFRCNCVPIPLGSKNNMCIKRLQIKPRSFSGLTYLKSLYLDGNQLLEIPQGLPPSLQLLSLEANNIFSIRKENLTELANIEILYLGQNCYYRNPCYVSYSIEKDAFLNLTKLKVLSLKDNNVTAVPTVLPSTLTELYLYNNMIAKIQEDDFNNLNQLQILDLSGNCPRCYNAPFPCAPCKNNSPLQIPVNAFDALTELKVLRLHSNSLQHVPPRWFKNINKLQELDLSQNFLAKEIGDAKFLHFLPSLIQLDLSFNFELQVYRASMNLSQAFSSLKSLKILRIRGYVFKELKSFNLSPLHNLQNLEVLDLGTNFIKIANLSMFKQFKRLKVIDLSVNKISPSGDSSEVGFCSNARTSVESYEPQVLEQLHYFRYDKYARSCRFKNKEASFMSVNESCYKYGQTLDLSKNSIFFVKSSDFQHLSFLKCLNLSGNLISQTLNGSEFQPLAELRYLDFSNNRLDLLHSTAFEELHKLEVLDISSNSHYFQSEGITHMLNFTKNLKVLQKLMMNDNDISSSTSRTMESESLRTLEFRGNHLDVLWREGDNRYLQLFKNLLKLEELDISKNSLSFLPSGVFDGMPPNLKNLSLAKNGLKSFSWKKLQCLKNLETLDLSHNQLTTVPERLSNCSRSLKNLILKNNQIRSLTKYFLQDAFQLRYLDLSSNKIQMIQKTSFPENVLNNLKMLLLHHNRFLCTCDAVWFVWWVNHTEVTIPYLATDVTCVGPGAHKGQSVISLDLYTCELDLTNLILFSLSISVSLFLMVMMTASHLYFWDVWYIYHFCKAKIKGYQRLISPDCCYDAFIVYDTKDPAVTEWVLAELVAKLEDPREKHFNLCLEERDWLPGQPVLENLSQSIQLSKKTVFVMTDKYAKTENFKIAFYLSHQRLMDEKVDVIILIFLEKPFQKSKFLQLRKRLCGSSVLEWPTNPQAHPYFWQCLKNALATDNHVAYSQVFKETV
Put plainly: TLR7 inhibition reporter assay (HEK-Blue SEAP). It is filed as cell-based. To be noted: HEK-Blue cells overexpressing human TLR7, gardiquimod 7.5 μM, 22 hour incubation. In short, it runs like this: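 In this cell reporter format, test compounds at 0.05 nM-50 μM final incubate 22 h with seeded cells (TLR7 15000, TLR8 20,000 per well). SEAP read-out by HEK-Blue Detection medium yields % inhibition relative to agonist/DMSO and known-inhibitor wells.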
(In a reporter assay the amount or activity of a reporter protein is the signal.)
For orientation: IC50 means the point on the concentration scale where inhibition reaches its midpoint. On to `Cc1cc2c(cc1-c1cc(C)c3ncnn3c1)[nH]c(=O)n2[C@@H]1CCCN(Cc2ncn(C)n2)C1` [Example 35, (R)-6-methyl-1-(1-((1-methyl-1H-1,2,4-triazol-3-yl)methyl)piperidin-3-yl)-5-(8-methyl-[1,2,4]triazolo[1,5-a]pyridin-6-yl)-1,3-dihydro-2H-benzo[d]imidazol-2-one], for which the IC50 amounted to 722 nM.

With `COc1cc(-c2ccc3c(c2)[nH]c(=O)n3C2CCN(C3COC3)CC2)cn2ncnc12` [Example 80, 5-(8-methoxy-[1,2,4]triazolo[1,5-a]pyridin-6-yl)-1-(1-(oxetan-3-yl)piperidin-4-yl)-1,3-dihydro-2H-benzo[d]imidazol-2-one], the IC50 was over 3130 nM. For `COc1cc(-c2cc3[nH]c(=O)n([C@H]4CC[C@@H](NCC5CC5)CC4)c3cc2C)cn2ncnc12` [Example 60, 1-((1s,4s)-4-((cyclopropylmethyl)amino)cyclohexyl)-5-(8-methoxy-[1,2,4]triazolo[1,5-a]pyridin-6-yl)-6-methyl-1,3-dihydro-2H-benzo[d]imidazol-2-one] the value was 27.6 nM. In the case of `CCC(CC)N1CCC[C@@H](n2c(=O)[nH]c3cc(-c4cc(OC)c5ncnn5c4)c(C)cc32)C1` [Example 67, (R)-5-(8-methoxy-[1,2,4]triazolo[1,5-a]pyridin-6-yl)-6-methyl-1-(1-(pentan-3-yl)piperidin-3-yl)-1,3-dihydro-2H-benzo[d]imidazol-2-one], inhibition was half-maximal at 33 nM (IC50). For `COc1cc(-c2cc3[nH]c(=O)n([C@H]4CC[C@@H](NC(C)C)CC4)c3cc2C)cn2ncnc12` [Example 50, 1-((1s,4s)-4-(isopropylamino)cyclohexyl)-5-(8-methoxy-[1,2,4]triazolo[1,5-a]pyridin-6-yl)-6-methyl-1,3-dihydro-2H-benzo[d]imidazol-2-one] the value was 38.5 nM; for `COc1cc(-c2ccc3c(c2)[nH]c(=O)n3C2CCN(CC3CCOCC3)CC2)cn2ncnc12` [Example 78, 5-(8-methoxy-[1,2,4]triazolo[1,5-a]pyridin-6-yl)-1-(1-((tetrahydro-2H-pyran-4-yl)methyl)piperidin-4-yl)-1,3-dihydro-2H-benzo[d]imidazol-2-one], 1120 nM.
